Like-named read-outs stand apart in the source and are kept apart here.

Series [1] deals with CWR22-RH human prostate cancer PDXs. Nature of the series: In vivo growth of CWR22-RH xenografts in castrate NSG male mice. The following applies: for CWR22-RH Tumor Growth (% inhibition +/− SD): castrate mice treated orally over a 3 week period, n = 5/group. From the text: Prostate Cancer Models. The source, history, and characteristics of the human prostate cancer cell lines and PDXs used, as well as cell culture conditions for their in vitro maintenance and the in vivo protocol for xenograft growth in triple immune-deficient NSG (i.e. NOD.Cg-PrkdcScidIl2rgtmlWji/Szj), adult (>8 week old) male mice obtained from the Sidney Kimmel Comprehensive Cancer Center (SKCCC) Animal Core Facility are described previously (Isaacs 2013; Brennen et al. JCI Insight. 2021, 6(8):e146827; Zhu et al. Oncogene 2020, 39(45): 6935-6949). Similar information concerning the TRAMP-C2 and B6CaP mouse prostate cancers originating in a C57BL/6J male mice are described previously (Foster et al. Cancer Res. 1997, 57: 3325-3330; Simons et al. Oncotarget. 2019, 10(64):6845-6854). In vitro growth curves were determined as described (Isaacs 2013). In vivo growth response to oral daily TasQ (10 mg/kg/d) of TRAMP-C2 mouse prostate cancers was evaluated in C57BL/6J syngeneic wild type vs. NOX-2 vs. iNOS null male mice obtained from Jackson Laboratory (Bar Harbor, ME). Growth response to oral daily TasQ (10 mg/kg/d) of TRAMP-C2 and B6CaP mouse prostate cancers was also evaluated in S100A9 null C57BL′6J male mice obtained from Dmitry Gabrilovich (Wistar Institute). All lines were mycoplasma negative using the MycoSensor PCR Assay kit (Agilent Technologies) and genetically authenticated within the last 6 months using short tandem repeat profiling conducted by the Johns Hopkins Genetic Resource Core Facility. In vitro growth curves were determined as described (Isaacs 2013). Growth response to daily oral TasQ vs. ESATA-20 (both at 10 mg/kg/d) of Myc-CaP-CR mouse prostate cancer was evaluated in syngeneic FVB/NJ castrate male mice from Jackson Laboratory. Animal studies were conducted according to animal protocols approved by Johns Hopkins Animal Care and Use Committee. Tumor volume measurements were as described previously (id.). In vivo experiments were repeated multiple independent times for each model used with 3-5 mice per treatment grouping.
Oral Drug treatment. TasQ at the indicated dose was initially dissolved with equal molar 1 N sodium hydroxide. This solution was diluted with sterile water and the mixture stirred for 1 hr. The pH was then adjusted with 1 N HCl to 8.9 and 200 μL given daily via oral gavage.
Due to these combined effects, maximal growth inhibition of CWR22-RH, a castration-resistant prostate cancer patient-derived xenograft (PDX), is obtained as maintenance therapy with oral daily dosing of ≥5 mg/kg/d (FIG. 1). […] Previous studies documented that in vitro treatment of human prostate cancer cells (LNCaP) with 1-10 μM TasQ rapidly (i.e., ≤1 day) induces the transcription of a series of AHR target genes (e.g., Cyp1a1, Cyp1b1, AHRR, TPARP, GDF15) (Olsson 2010). […]

For series [2], the system named is human umbilical vein endothelial cells (HUVECs). Description: Three dimensional (3D) endothelial sprouting assay. The class given is cell-based. The following applies: HUVEC, CM-supplemented 3D-fibrin cultures, read-out: IC90 for inhibiting endothelial cell sprouting. How it is done: Three Dimensional (3D) Endothelial Sprouting Assay. The assay was performed using a minimum of 3 replicate wells of a 48 well tissue culture plate per drug dose per experiment, repeated 3 independent times in which human umbilical vein endothelial cells (HUVECs) obtained from Lonza Walkersville Inc (Walkersville, MD) attached to gelatin-coated dextran microcarrier bead are embedded in a fibrin matrix as described previously (Brennen et al. Oncotarget 7, 71298-71308 (2016)).
Besides its therapeutic effects on cancer cells, TasQ's anti-cancer efficacy also involves its dose-dependent anti-angiogenic activity (see, e.g., Isaacs 2006, Olsson 2010, Dalrymple 2012), Isaacs 2013, Isaacs 2014, Brennen 2016). To clarify the MoA for this anti-angiogenic activity, a 3-dimensional (3D) endothelial cell sprouting assay was used. In this assay, human umbilical vein endothelial cells (HUVECs) in basal media supplemented with VEGF, EGF, FGF, IGF1 and 2% FBS in standard 2D cultures are attached to collagen-coated beads embedded in a 3D-fibrin gel in the same growth factor-supplemented media. […] This lack of sprouting is associated with an upregulation in Mef-2c mRNA (Table 2) and protein (FIG. 38), and its target genes (Table 2) like Alpha 2 Macroglobulin (A2M). […]

Series [3] deals with liver Cyp1a1. Nature of the series: Mouse liver Cyp1a1 induction after oral dosing (Q-PCR). Type of series: in vivo. An excerpt:
Real-time quantitative PCR (Q-PCR) analysis. […] ID NO: 2) and […] ID NO: 3). […] ID NO: 4) and […] ID NO: 5).

The subject of series [4] is HIF-1α protein in LNCaP cells. Description: Nuclear HIF-1α protein level in LNCaP cells (immunoblot). The class given is cell-based, human. To be noted: LNCaP cells in vitro, read-out: IC50 for decreasing nuclear HIF-1α protein. As to the method: Western Blot Analysis. Analysis and quantification of protein expression via immunoblot was performed as previously described (Brennen 2021). All assays were performed with total cell lysates from an equal number (i.e., 100,000) of cells loaded per lane for accurate comparisons across cell lines and conditions.
[…] is an HDAC4 client (see, e.g., Isaacs 2013) binding between AA 603-788 in its inhibitory domain to HDAC4 (Seo et al. FEBS Lett 583, 55-604 (2009)). As a client, the HDAC4/NCoR1/HDAC3 complex deacetylates the N-terminal lysines, which stabilizes and thus activates HIF-1α as a transcription factor (see, e.g., Isaacs 2013). In LNCaP cells under normoxic conditions, HIF-1α protein is low, cytoplasmic, and mostly unphosphorylated; while under hypoxic conditions, it is increased, nuclear, and phosphorylated (i.e., slower migrating band on western blot) (see, e.g., Isaacs 2013) (FIG. 30). HDAC4 KD in LNCaP prostate cancer cells prevents deacetylation-dependent stabilization, resulting in a reduction of nuclear HIF-1α protein (FIG. 31). […] The causal importance of decreased HIF-1α protein for in vivo growth was evaluated by knocking down HIF-1α protein expression in LNCaP cells (FIG. 31), and assessing xenograft growth.
A general note: A western blot detects proteins with antibodies after separation by electrophoresis.

What is called IC90 is the point of the concentration-response curve where the effect stands at 90%. The term IC50 denotes the concentration that inhibits the measured activity by half. On to `COc1cccc2c1c(O)c(C(=O)N(C)c1ccc(C(F)(F)F)cc1)c(=O)n2C` [TasQ, Tasquinimod], for which, in series [1] (10 mg/kg/d), the “CWR22-RH Tumor Growth (% inhibition +/− SD)” value is listed as 87 +/− 11%. Also, the “plasma concentration required to maximally inhibit in vivo prostate cancer xenograft growth” value in series [1] (combined xenograft and PK results) was over 2 µM. Further, the “oral daily dose giving maximal growth inhibition” value in series [1] (maintenance therapy, CWR22-RH PDX) was at least 5 mg/kg/day. Also, the IC90 in series [2] stood at 10000 nM. Also, the “induction of liver Cyp1a1” value in series [3] (daily oral 10 mg/kg, alone and in combination with B(a)P) is recorded as over 50 fold. Further, in series [4], the IC50 worked out at 2500 nM.

As for `COc1cccc2c1c(O)c(C(=O)N(c1ccc(C(F)(F)F)cc1)C1CCCCC1)c(=O)n2C` [ESATA-20], in series [1] (10 mg/kg/d), the “anti-cancer efficacy compared with TasQ” value is “same maximal anti-cancer efficacy as TasQ” and the “CWR22-RH Tumor Growth (% inhibition +/− SD)” value was 80 +/− 15%. Besides, in series [1] (on a molar basis), the “fold more potent than TasQ in inhibiting CWR22-RH xenograft growth” value is “at least 5 fold”. Also, the IC90 in series [2] was determined as 1000 nM. Moreover, the “induction of liver Cyp1a1” value in series [3] (given orally at 30 mg/kg/d) is “lack of induction”. Moreover, in series [4] (Homo sapiens), the IC50 amounted to 1000 nM.

The values are drawn from patent publication US20250059139A1, “COMPOUNDS FOR TREATMENT OF CANCER” (THE JOHNS HOPKINS UNIVERSITY, priority 2021, published 2025).
